Assay results as given in patent US6432922B1 (Corvas International, Inc., priority 1998, dated 2002).
Where two headings read alike, the source gives them in different places. Non-standard residues stand in square brackets, D forms with d. Residues, ends and D or L forms follow the SMILES beside them. *: point of attachment. cisHyp = O=C(O)[C@@H]1C[C@H](O)CN1; AllylGly = C=CC[C@H](N)C(=O)O; ΔPro = O=C(O)[C@@H]1C=CCN1; Pra = C#CC[C@H](N)C(=O)O; Cbz = O=C(OCc1ccccc1)*

Assays:
[1] = system: bFGF-induced angiogenesis on the CAM of chick embryos; assay: Chicken CAM model of bFGF-induced angiogenesis; type: in vivo; conditions: for Angiogenic Index / # of Blood Vessel Branch Points: bFGF; for Angiogenic Index: difference in branch points vs untreated control embryos; for # of Blood Vessel Branch Points: single administration
Text: A test compound can either be added to the filter disc that contains the angiogenesis inducer, be placed directly on the membrane or be administered systemically. The extent of new blood vessel formation in the presence and/or absence of test compound can be compared using this model. The formation of fewer new blood vessels in the presence of a test compound would be indicative of anti-angiogenesis activity.
The chicken CAM (chick embryo chorioallantoic membrane) model, a standard angiogenesis assay, was used to evaluate the ability of Compound 1 to inhibit angiogenesis. This model is an established model for evaluation of activity of a test compound to affect formulation of new blood vessels.
A filter disc saturated with a 0.5 μg/ml solution of basic fibroblast growth factor (bFGF) was placed on the CAM of 10 day old chick embryos to induce angiogenesis. Twenty four hours later, 0 to 1 μg of Compound 1, in a total volume of 100 μl of sterile PBS, was injected intravenously into the embryo. Approximately 48 hours later, the embryos were sacrificed and the filter discs and surrounding CAM tissue were excised for analysis. Angiogenesis was quantitated by counting the number of blood vessel branch points within the confined region of the filter [Brooks, P.C., et al, Methods in Molecular Biology 120:257-269 (1999)]. The angiogenic index is defined as the difference in the number of blood vessel branch points between an experimental group and the untreated, control embryos. Each experimental group contained 8 to 10 chicken embryos. A single administration of 1 μg of Compound 1 inhibited angiogenesis by 92% in this experiment.

[2] = molecular target: T1, human plasmin (Homo sapiens, UniProt P00747); assay: Plasmin chromogenic substrate (S-2366) assay; type: biochemical; conditions: 30 minute preincubation, HBSA buffer
T1 construct: purchased Enzyme Research Laboratories, Inc
T1 sequence (P00747 581-810 limits assumed): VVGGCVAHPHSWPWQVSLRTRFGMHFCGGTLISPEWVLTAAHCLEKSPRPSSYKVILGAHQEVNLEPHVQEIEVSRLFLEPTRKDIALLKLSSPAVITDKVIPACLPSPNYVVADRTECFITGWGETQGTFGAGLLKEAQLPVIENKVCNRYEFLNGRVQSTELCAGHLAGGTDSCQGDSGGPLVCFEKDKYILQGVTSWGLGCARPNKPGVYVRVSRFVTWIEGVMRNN
T1 sequence (P00747 97-580 partner limits assumed): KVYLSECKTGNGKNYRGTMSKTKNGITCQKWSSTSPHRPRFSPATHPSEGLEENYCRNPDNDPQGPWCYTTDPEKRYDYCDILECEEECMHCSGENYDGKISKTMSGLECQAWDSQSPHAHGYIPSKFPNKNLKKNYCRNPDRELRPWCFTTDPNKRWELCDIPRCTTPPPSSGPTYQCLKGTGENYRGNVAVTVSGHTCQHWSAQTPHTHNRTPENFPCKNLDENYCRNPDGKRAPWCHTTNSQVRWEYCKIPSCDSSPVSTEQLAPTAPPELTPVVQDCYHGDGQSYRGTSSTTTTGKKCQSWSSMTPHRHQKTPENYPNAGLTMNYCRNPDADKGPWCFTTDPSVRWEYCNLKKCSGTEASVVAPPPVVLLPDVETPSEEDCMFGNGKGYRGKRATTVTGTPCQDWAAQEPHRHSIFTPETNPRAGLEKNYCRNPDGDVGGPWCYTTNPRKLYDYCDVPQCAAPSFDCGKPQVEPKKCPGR
Description: The substrate was made up in deionized water followed by dilution in HBSA prior to the assay in which the final concentration was 300 micromolar (about 2.5-times Km). Purified human plasmin was obtained from Enzyme Research Laboratories, Inc. The enzyme was diluted into HBSA prior to assay in which the final concentration was 1.0 nM.

[3] = molecular target: Urokinase (Abbokinase) (Homo sapiens, UniProt P00749); assay: Urokinase chromogenic substrate (S-2444) IC50 assay
Description: The buffer used for all assays was HBSA (10 mM HEPES, pH 7.5, 150 mM sodium chloride, 0.1% bovine serum albumin).
The initial velocity of chromogenic substrate hydrolysis was measured by the change in absorbance at 405 nm using a Thermo Max® Kinetic Microplate Reader over a 5 minute period in which less than 5% of the added substrate was utilized.
The assay buffer was HBS (10mM HEPES, 150mM sodium chloride pH 7.4) with 0.1% BSA.

[4] = system: human fibrosarcoma cells (HT 1080); assay: Growth of human HT1080 tumor cells in chick embryo model; type: in vivo, chicken; conditions: for Tumor wet weight: 7 days incubation
Description: A chicken embryo model was used to evaluate the activity of Compound 1 to inhibit the growth of human tumor cells in vivo. A single cell suspension of human fibrosarcoma cells (HT 1080), containing 4×10^5 cells in a total volume of 40 μl, was applied to 10 day old chick embryos as described by Brooks, et al (“Brooks, P.C., et al, “Integrin αvβ3 Antagonists Promote Tumor Regression by Inducing Apoptosis of Angiogenic Blood Vessels”, Cell 79:1157-1164 (1994)). Twenty-four hours later 0 to 10 μg of Compound 1 was injected intravenously into the embryos. Following this single administration of compound, control and treated embryos were incubated for a total of 7 days and then sacrificed. Tumors were excised, trimmed free of surrounding CAM tissue, and weighed. Each experimental group contained 10 to 12 chicken embryos. A single dose of 10 μg of Compound 1 reduced tumor weight by approximately 65%.

[5] = molecular target: T2, Human rt-PA (Activase) (Homo sapiens, UniProt P00750); assay: Recombinant tissue plasminogen activator (rt-PA) chromogenic assay; type: biochemical; conditions: 30 minute preincubation, HBSA buffer; read-out: tPA IC50
T2 construct: purchased Genentech Inc
T2 sequence (P00750 36-562): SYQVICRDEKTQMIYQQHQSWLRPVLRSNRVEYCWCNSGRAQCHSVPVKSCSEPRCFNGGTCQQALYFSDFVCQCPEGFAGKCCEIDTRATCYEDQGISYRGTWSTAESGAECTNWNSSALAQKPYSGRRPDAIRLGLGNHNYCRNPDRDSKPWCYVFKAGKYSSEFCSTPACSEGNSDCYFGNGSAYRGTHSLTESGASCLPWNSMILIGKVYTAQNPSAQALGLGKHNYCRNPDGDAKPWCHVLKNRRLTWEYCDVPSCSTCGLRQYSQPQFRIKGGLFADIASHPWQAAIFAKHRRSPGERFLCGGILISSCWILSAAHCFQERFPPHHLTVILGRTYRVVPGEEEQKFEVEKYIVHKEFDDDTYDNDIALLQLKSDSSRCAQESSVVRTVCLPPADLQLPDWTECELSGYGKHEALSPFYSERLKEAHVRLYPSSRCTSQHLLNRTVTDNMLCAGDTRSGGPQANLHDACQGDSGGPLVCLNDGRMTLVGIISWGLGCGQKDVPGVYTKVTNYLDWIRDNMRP
Description: rt-PA catalytic activity was determined using the substrate, Pefachrome t-PA (CH3SO2-D-hexahydrotyrosine-glycyl-L-arginine-p-nitroaniline, obtained from Pentap harm Ltd.). The substrate was made up in deionized water followed by dilution in HBSA prior to the assay in which the final concentration was 500 micromolar (about 3-times Km). Human rt-PA (Activase®) was obtained from Genentech Inc. The enzyme was reconstituted in deionized water and diluted into HBSA prior to the assay in which the final concentration was 1.0 nM.

Compound	IC50 [2]	IC50 [3]	IC50 [5]	other results
CC(C)COC(=O)N[C@H](CO)C(=O)N[C@@H](C)C(=O)N[C@H](C=O)CCCNC(=N)N [Compound 1, Isobutyloxycarbonyl-D-seryl-L-alanyl-argininal]	0.25 to 2.5 µM	< 0.1 µM	> 2.5 µM	Angiogenic Index ([1]; 0.001 μg Compound 1): 22; # of Blood Vessel Branch Points ([1]; 0.001 μg Compound 1 intravenously): 35 +/− 5; Angiogenic Index ([1]; 0.01 μg Compound 1): 8; # of Blood Vessel Branch Points ([1]; 0.01 μg Compound 1 intravenously): 21 +/− 5; Angiogenic Index ([1]; 1.0 μg Compound 1): 2; # of Blood Vessel Branch Points ([1]; 1.0 μg Compound 1 intravenously): 15 +/− 1; inhibition of angiogenesis ([1]; single administration of 1 μg, intravenously): 92%; Tumor wet weight ([4]; 1 μg single intravenous dose): 174 ± 25 mg; Tumor wet weight ([4]; 10 μg single intravenous dose): 97 ± 15 mg; reduction of tumor weight ([4]; single dose of 10 μg): approximately 65%
N=C(N)NCCC[C@@H](C=O)NC(=O)[C@H](CO)NC(=O)[C@@H](CO)NC(=O)OCc1ccccc1 [Compound 45, benzyloxycarbonyl-D-seryl-L-seryl-argininal] (Cbz-[dS]-Ser-Arg-aldehyde)	0.25 to 2.5 µM	0.1 to 0.25 µM	> 2.5 µM	
C[C@H](NC(=O)[C@@H](CO)NS(=O)(=O)CCc1ccccc1)C(=O)N[C@H](C=O)CCCNC(=N)N [Compound 47, 2-phenylethylsulfonyl-D-seryl-alanyl-argininal]	0.25 to 2.5 µM	< 0.1 µM	> 2.5 µM	
C[C@H](NC(=O)[C@@H](CO)NS(=O)(=O)CCCc1ccccc1)C(=O)N[C@H](C=O)CCCNC(=N)N [Compound 48, 3-phenylpropylsulfonyl-D-seryl-alanyl-argininal]	0.25 to 2.5 µM	< 0.1 µM	> 2.5 µM	
N=C(N)NCCC[C@@H](C=O)NC(=O)[C@@H]1C[C@H](O)CN1C(=O)[C@@H](CO)NC(=O)OCc1ccccc1 [Compound 49, benzyloxycarbonyl-D-seryl-L-cis-4-hydroxyprolyl-argininal] (Cbz-[dS]-[cisHyp]-Arg-aldehyde)	0.25 to 2.5 µM	< 0.1 µM	> 2.5 µM	
N=C(N)NCCC[C@@H](C=O)NC(=O)[C@@H]1C=CCN1C(=O)[C@@H](CO)NC(=O)OCc1ccccc1 [Compound 50, benzyloxycarbonyl-D-seryl-L-3,4-dehydroprolyl-argininal] (Cbz-[dS]-[ΔPro]-Arg-aldehyde)	0.1 to 0.25 µM	< 0.1 µM	> 2.5 µM	
C#CC[C@H](NC(=O)[C@@H](CO)NC(=O)OCc1ccccc1)C(=O)N[C@H](C=O)CCCNC(=N)N [Compound 51, benzyloxycarbonyl-D-seryl-L-propargylglycyl-argininal] (Cbz-[dS]-[Pra]-Arg-aldehyde)	0.25 to 2.5 µM	< 0.1 µM	> 2.5 µM	
C=CC[C@H](NC(=O)[C@@H](CO)NC(=O)OCc1ccccc1)C(=O)N[C@H](C=O)CCCNC(=N)N [Compound 52, benzyloxycarbonyl-D-seryl-L-allylglycyl-argininal] (Cbz-[dS]-[AllylGly]-Arg-aldehyde)	0.25 to 2.5 µM	0.1 to 0.25 µM	> 2.5 µM	
C[C@H](NC(=O)[C@@H](CO)NS(=O)(=O)/C=C/c1ccccc1)C(=O)N[C@H](C=O)CCCNC(=N)N [Compound 53, trans-β-Styrenesulfonyl-D-seryl-L-alanyl-argininal]	0.25 to 2.5 µM	< 0.1 µM	> 2.5 µM	
benzyloxycarbonyl-D-seryl-L-β-cyanoalanine-argininal [Compound 46]	0.25 to 2.5 µM		> 2.5 µM	IC50 ([3]; read-out: uPA IC50, 30 minute preincubation, HBSA buffer): < 0.1 µM
